Results published in patent US20230158157A1, “POTENT AND SELECTIVE DEGRADERS OF ALK” (DANA-FARBER CANCER INSTITUTE, INC., priority 2020, published 2023).
Where two headings read alike, the source gives them in different places.

Legend:
EML4-ALK = target: T1, EML4-ALK (Homo sapiens, UniProt Q9UM73); test: EML4-ALK HiBit degradation assay in CRISPR-tagged H3122 cells (Nano-Glo HiBit Lytic Detection); type: cell-based
T1 construct: endogenous in cells; host or cells: H3122 (NSCLC), single-cell clone after CRISPR knock-in of HiBit; the other entry of the earlier key: EML4 (Q9HC35, Echinoderm microtubule-associated protein-like 4)
Method: (§1) NSCLC cell line H3122 was subjected to CRISPR to express EML4-ALK with HiBit-tag on its c-terminal. Single-cell clone was selected and expanded for the following assays that monitor endogenous EML4-ALK level in high throughput manner. Cells were seeded in 384-well white Tissue-culture plates at 3000 cells/well for 8 hours. […] HiBit signal was assessed using Nano-Glo® HiBit Lytic Detection System (Promega™). Degrader-treated was normalized by DMSO-treated controls and DC50 and Dmax were generated by GraphPad Prism® 8.0.
as §1, with “its c-terminus. A single-cell” for “its c-terminal. Single-cell”, “Degrader-treated cells were” for “Degrader-treated was”
as §1, with “its C-terminus. A single-cell” for “its c-terminal. Single-cell”, “Degrader-treated cells were” for “Degrader-treated was”

H3122 cells = test: CTG; type: cell-based; details: read-out: CTG IC50
[1] = NCI-H3122, Table 1, first Dmax column, H3122 EML4-ALK-HiBit, 16 hours, read-out: Degradation Dmax
[2] = NCI-H3122, Table 1, second Dmax column, H3122 EML4-ALK-HiBit, 16 hours, read-out: Degradation Dmax
[3] = NCI-H3122, Table 1, average Dmax, read-out: Degradation Avg. Dmax
[4] = Table 1, first DC50 column, H3122 EML4-ALK-HiBit, 16 hours, read-out: Degradation DC50
[5] = Table 1, second DC50 column, H3122 EML4-ALK-HiBit, 16 hours, read-out: Degradation DC50
[6] = Table 1, average DC50, read-out: Degradation Avg. DC50
[7] = Homo sapiens, NCI-H3122, Table 1
[8] = NCI-H3122, Table 2, first Dmax column, H3122 EML4-ALK-HiBit, 16 hours, read-out: Degradation Dmax
[9] = NCI-H3122, Table 2, second Dmax column, H3122 EML4-ALK-HiBit, 16 hours, read-out: Degradation Dmax
[10] = NCI-H3122, Table 2, average Dmax, read-out: Degradation Avg. Dmax
[11] = Table 2, first DC50 column, H3122 EML4-ALK-HiBit, 16 hours, read-out: Degradation DC50
[12] = Table 2, second DC50 column, H3122 EML4-ALK-HiBit, 16 hours, read-out: Degradation DC50
[13] = Table 2, average DC50, read-out: Degradation Avg. DC50
[14] = Homo sapiens, NCI-H3122, Table 2

T1 sequence (Q9UM73 with tags, fused parts or gaps): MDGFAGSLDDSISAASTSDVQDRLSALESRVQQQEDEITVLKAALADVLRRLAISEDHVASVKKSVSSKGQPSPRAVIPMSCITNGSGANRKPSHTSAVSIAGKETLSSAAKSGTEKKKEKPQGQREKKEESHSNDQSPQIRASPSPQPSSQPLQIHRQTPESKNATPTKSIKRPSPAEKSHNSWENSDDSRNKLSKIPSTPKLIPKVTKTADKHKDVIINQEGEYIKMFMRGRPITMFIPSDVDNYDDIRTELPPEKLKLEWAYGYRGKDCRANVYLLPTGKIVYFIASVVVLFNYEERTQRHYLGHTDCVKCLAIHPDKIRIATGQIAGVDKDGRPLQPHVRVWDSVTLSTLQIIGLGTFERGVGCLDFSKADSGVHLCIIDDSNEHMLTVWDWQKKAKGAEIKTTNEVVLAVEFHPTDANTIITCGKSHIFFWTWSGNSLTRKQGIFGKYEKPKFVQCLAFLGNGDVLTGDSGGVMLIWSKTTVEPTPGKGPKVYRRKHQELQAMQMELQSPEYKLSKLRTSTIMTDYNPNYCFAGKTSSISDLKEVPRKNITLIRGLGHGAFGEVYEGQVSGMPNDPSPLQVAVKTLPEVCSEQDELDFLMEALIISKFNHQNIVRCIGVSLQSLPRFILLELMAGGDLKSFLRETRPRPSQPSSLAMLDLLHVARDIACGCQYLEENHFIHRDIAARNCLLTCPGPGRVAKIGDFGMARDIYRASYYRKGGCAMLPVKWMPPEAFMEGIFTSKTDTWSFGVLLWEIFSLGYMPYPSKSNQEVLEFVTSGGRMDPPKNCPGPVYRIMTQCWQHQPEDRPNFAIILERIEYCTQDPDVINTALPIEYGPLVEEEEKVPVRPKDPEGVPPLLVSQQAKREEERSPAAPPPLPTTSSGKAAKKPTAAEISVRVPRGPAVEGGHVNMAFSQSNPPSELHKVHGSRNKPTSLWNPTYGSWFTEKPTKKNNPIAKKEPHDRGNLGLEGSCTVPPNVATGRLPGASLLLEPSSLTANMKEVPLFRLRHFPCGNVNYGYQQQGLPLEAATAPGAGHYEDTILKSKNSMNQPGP

SMILES | Dmax (EML4-ALK; [1]) | Dmax (EML4-ALK; [2]) | Dmax (EML4-ALK; [3]) | DC50 (EML4-ALK; [4]) | DC50 (EML4-ALK; [5]) | DC50 (EML4-ALK; [6]) | IC50 (H3122 cells; [7]) | Dmax (EML4-ALK; [8]) | Dmax (EML4-ALK; [9]) | Dmax (EML4-ALK; [10]) | DC50 (EML4-ALK; [11]) | DC50 (EML4-ALK; [12]) | DC50 (EML4-ALK; [13]) | IC50 (H3122 cells; [14]) | IC50 (H3122 cells; Table 1)
COc1cc(CCN(C)C(=O)CCCCCCC(=O)N[C@H](C(=O)N2C[C@H](O)C[C@H]2C(=O)N[C@@H](C)c2ccc(-c3scnc3C)cc2)C(C)(C)C)c(C)cc1Nc1ncc(Cl)c(Nc2ccccc2S(=O)(=O)C(C)C)n1 [compound 40, N^1-(4-((5-chloro-4-((2-(isopropylsulfonyl)phenyl)amino)pyrimidin-2-yl)amino)-5-methoxy-2-methylphenethyl)-N^8-((S)-1-((2S,4R)-4-hydroxy-2-(((S)-1-(4-(4-methylthiazol-5-yl)phenyl)ethyl)carbamoyl)pyrrolidin-1-yl)-3,3-dimethyl-1-oxobutan-2-yl)-N^1-methyloctanediamide] | 68.6% | 41.6% | 55.1% | 392 nM | 145 nM | 269 nM | 149 nM |  |  |  |  |  |  |  | 
COc1cc(CCN(C)C(=O)CCCC#Cc2cccc3c2C(=O)N(C2CCC(=O)NC2=O)C3=O)c(C)cc1Nc1ncc(Cl)c(Nc2ccccc2P(C)(C)=O)n1 (centres unmarked) [Compound 61] |  |  |  |  |  |  |  | 29.5% | 39.6% | 34.5% | 9040 nM | 8370 nM | 8700 nM | > 10000 nM | 
COc1cc(CCNCCCC(=O)N[C@H](C(=O)N2C[C@H](O)C[C@H]2C(=O)N[C@@H](C)c2ccc(-c3scnc3C)cc2)C(C)(C)C)c(C)cc1Nc1ncc(Cl)c(Nc2ccccc2P(C)(C)=O)n1 [Compound 72] |  |  |  |  |  |  |  | 37.9% | 37.9% | 37.9% | 8820 nM | 3590 nM | 6200 nM | 2950 nM | 
COc1cc(CCNCCCCCOc2cc(-c3scnc3C)ccc2[C@H](C)NC(=O)[C@@H]2C[C@@H](O)CN2C(=O)[C@@H](NC(C)=O)C(C)(C)C)c(C)cc1Nc1ncc(Cl)c(Nc2ccccc2S(=O)(=O)C(C)C)n1 [Compound 53] | 64.9% | 68.2% | 66.5% | 113 nM | 72 nM | 93 nM | 121 nM |  |  |  |  |  |  |  | 
COc1cc(CCN(C)C(=O)CCCCCCCCNC(=O)COc2cccc3c2C(=O)N(C2CCC(=O)NC2=O)C3=O)c(C)cc1Nc1ncc(Cl)c(Nc2ccccc2P(C)(C)=O)n1 (centres unmarked) [Compound 59] |  |  |  |  |  |  |  | 33.7% |  | 33.7% | 3740 nM |  | 3740 nM | 1720 nM | 
COc1cc(CCNCCCCCSC(C)(C)C(NC(C)=O)C(=O)N2C[C@H](O)C[C@H]2C(=O)N[C@@H](C)c2ccc(-c3scnc3C)cc2)c(C)cc1Nc1ncc(Cl)c(Nc2ccccc2P(C)(C)=O)n1 (some centres unmarked) [Compound 73] |  |  |  |  |  |  |  | 59.6% | 62% | 60.8% | 3270 nM | 1180 nM | 2230 nM | 788 nM | 
COc1cc(CCN(C)C(=O)CCCCCNc2cccc3c2C(=O)N(C2CCC(=O)NC2=O)C3=O)c(C)cc1Nc1ncc(Cl)c(Nc2ccccc2S(=O)(=O)C(C)C)n1 (centres unmarked) [compound 2, N-(4-((5-chloro-4-((2-(isopropylsulfonyl)phenyl)amino)pyrimidin-2-yl)amino)-5-methoxy-2-methylphenethyl)-6-((2-(2,6-dioxopiperidin-3-yl)-1,3-dioxoisoindolin-4-yl)amino)-N-methylhexanamide] | 24.1% |  | 31.4% | 67 nM | 46 nM | 57 nM | 76.9 nM |  |  |  |  |  |  |  | 
COc1cc(CCN(C)C(=O)CCCCCC#Cc2cccc3c2C(=O)N(C2CCC(=O)NC2=O)C3=O)c(C)cc1Nc1ncc(Cl)c(Nc2ccccc2S(=O)(=O)C(C)C)n1 (centres unmarked) [compound 10, N-(4-((5-chloro-4-((2-(isopropylsulfonyl)phenyl)amino)pyrimidin-2-yl)amino)-5-methoxy-2-methylphenethyl)-8-(2-(2,6-dioxopiperidin-3-yl)-1,3-dioxoisoindolin-4-yl)-N-methyloct-7-ynamide] | 43.4% |  | 43.4% | 203 nM |  | 203 nM | 125 nM |  |  |  |  |  |  |  | 
CC[C@@H](NC(=O)[C@@H]1C[C@H](NC(=O)CCCCCCCC(=O)N(C)CCc2cc(OC)c(Nc3ncc(Cl)c(Nc4ccccc4S(=O)(=O)C(C)C)n3)cc2C)CN1C(=O)[C@@H](NC(=O)[C@H](C)NC)C(C)(C)C)c1ccccc1 [Compound 56] |  |  |  | 163 nM | 226 nM | 195 nM |  |  |  |  |  |  |  |  | 360 nM
COc1cc(CCN(C)C(=O)CCCCCCCCC(=O)N[C@H](C(=O)N2C[C@H](O)C[C@H]2C(=O)N[C@@H](C)c2ccc(-c3scnc3C)cc2)C(C)(C)C)c(C)cc1Nc1ncc(Cl)c(Nc2ccccc2S(=O)(=O)C(C)C)n1 [compound 42, N^1-(4-((5-chloro-4-((2-(isopropylsulfonyl)phenyl)amino)pyrimidin-2-yl)amino)-5-methoxy-2-methylphenethyl)-N^10-((S)-1-((2S,4R)-4-hydroxy-2-(((S)-1-(4-(4-methylthiazol-5-yl)phenyl)ethyl)carbamoyl)pyrrolidin-1-yl)-3,3-dimethyl-1-oxobutan-2-yl)-N^1-methyldecanediamide] | 47.3% |  | 47.3% | 777 nM |  | 777 nM | 1310 nM |  |  |  |  |  |  |  | 
COc1cc(CCN(C)C(=O)CCOCCOCCNC(=O)COc2cccc3c2C(=O)N(C2CCC(=O)NC2=O)C3=O)c(C)cc1Nc1ncc(Cl)c(Nc2ccccc2S(=O)(=O)C(C)C)n1 (centres unmarked) [compound 8, N-(4-((5-chloro-4-((2-(isopropylsulfonyl)phenyl)amino)pyrimidin-2-yl)amino)-5-methoxy-2-methylphenethyl)-3-(2-(2-(2-((2-(2,6-dioxopiperidin-3-yl)-1,3-dioxoisoindolin-4-yl)oxy)acetamido)ethoxy)ethoxy)-N-methylpropanamide] | 44.3% |  | 44.8% | 171 nM |  | 171 nM | 75 nM |  |  |  |  |  |  |  | 
COc1cc(CCN(C)C(=O)CCOCCOCCNc2cccc3c2C(=O)N(C2CCC(=O)NC2=O)C3=O)c(C)cc1Nc1ncc(Cl)c(Nc2ccccc2S(=O)(=O)C(C)C)n1 (centres unmarked) [compound 4, N-(4-((5-chloro-4-((2-(isopropylsulfonyl)phenyl)amino)pyrimidin-2-yl)amino)-5-methoxy-2-methylphenethyl)-3-(2-(2-((2-(2,6-dioxopiperidin-3-yl)-1,3-dioxoisoindolin-4-yl)amino)ethoxy)ethoxy)-N-methylpropanamide] | 44.8% | 33% | 38.9% | 100 nM | 34 nM | 67 nM | 25.1 nM |  |  |  |  |  |  |  | 
COc1cc(CCNCCCCCSC(C)(C)[C@H](NC(C)=O)C(=O)N2C[C@H](O)C[C@H]2C(=O)N[C@@H](C)c2ccc(-c3scnc3C)cc2)c(C)cc1Nc1ncc(Cl)c(Nc2ccccc2S(=O)(=O)C(C)C)n1 [Compound 48] | 77.2% | 108% | 92.8% | 961 nM | 611 nM | 786 nM | 388 nM |  |  |  |  |  |  |  | 
COc1cc(CCN(C)C(=O)CCCCCNC(=O)COc2cccc3c2C(=O)N(C2CCC(=O)NC2=O)C3=O)c(C)cc1Nc1ncc(Cl)c(Nc2ccccc2S(=O)(=O)C(C)C)n1 (centres unmarked) [compound 6, N-(4-((5-chloro-4-((2-(isopropylsulfonyl)phenyl)amino)pyrimidin-2-yl)amino)-5-methoxy-2-methylphenethyl)-6-(2-((2-(2,6-dioxopiperidin-3-yl)-1,3-dioxoisoindolin-4-yl)oxy)acetamido)-N-methylhexanamide] | 34% | 30.4% | 32.2% | 124 nM | 266 nM | 195 nM | 11.6 nM |  |  |  |  |  |  |  | 
COc1cc(CCN(C)C(=O)CCCCCCCCNc2cccc3c2C(=O)N(C2CCC(=O)NC2=O)C3=O)c(C)cc1Nc1ncc(Cl)c(Nc2ccccc2S(=O)(=O)C(C)C)n1 (centres unmarked) [compound 3, N-(4-((5-chloro-4-((2-(isopropylsulfonyl)phenyl)amino)pyrimidin-2-yl)amino)-5-methoxy-2-methylphenethyl)-9-((2-(2,6-dioxopiperidin-3-yl)-1,3-dioxoisoindolin-4-yl)amino)-N-methylnonanamide] |  | 38.4% |  |  | 346 nM |  | 136 nM |  |  |  |  |  |  |  | 
